Data on four compounds can be found in patent publication US20260022143A1, “Cyclic Peptide Inhibitors of IL-23” (JANSSEN PHARMACEUTICA NV, priority 2022, published 2026).

Positions of bridges follow the written chain, without caps; N, C: chain ends. Non-standard residues stand in square brackets, D forms with d. Residues, ends and D or L forms follow the SMILES beside them. Groups on a side chain read outwards from the residue. *: point of attachment. X48 = CCCCCCCCCCCC(=O)N[C@@H](CCC(=O)*)C(=O)N[C@H](CC(=O)O)C[N+](C)(C)C; Me3N+(CH2)2O(CH2)2O(CH2)2CO = C[N+](C)(C)CCOCCOCCC(=O)*; CH2CH2OCH2CH2OCH2CH2NMe3+ = C[N+](C)(C)CCOCCOCC*; dTrp(7-Me) = Cc1cccc2c(C[C@@H](N)C(=O)O)c[nH]c12; Trp(7-Me) = Cc1cccc2c(C[C@H](N)C(=O)O)c[nH]c12; 2Nal = N[C@@H](Cc1ccc2ccccc2c1)C(=O)O; AEF = NCCOc1ccc(C[C@H](N)C(=O)O)cc1; 3Pal = N[C@@H](Cc1cccnc1)C(=O)O; Lys(Me) = CNCCCC[C@H](N)C(=O)O; Pen = CC(C)(S)[C@H](N)C(=O)O; X11 = N=C(N)NCCOCCOCCC(=O)*; Thp = NC1(C(=O)O)CCOCC1; AEEA = NCCOCCOCC(=O)O; Sar = CNCC(=O)O

The target in data set [1] is T1, IL-23R (Homo sapiens, UniProt Q5VWK5).
T1 construct: host or cells: HEK293
T1 sequence (Q5VWK5 24-629): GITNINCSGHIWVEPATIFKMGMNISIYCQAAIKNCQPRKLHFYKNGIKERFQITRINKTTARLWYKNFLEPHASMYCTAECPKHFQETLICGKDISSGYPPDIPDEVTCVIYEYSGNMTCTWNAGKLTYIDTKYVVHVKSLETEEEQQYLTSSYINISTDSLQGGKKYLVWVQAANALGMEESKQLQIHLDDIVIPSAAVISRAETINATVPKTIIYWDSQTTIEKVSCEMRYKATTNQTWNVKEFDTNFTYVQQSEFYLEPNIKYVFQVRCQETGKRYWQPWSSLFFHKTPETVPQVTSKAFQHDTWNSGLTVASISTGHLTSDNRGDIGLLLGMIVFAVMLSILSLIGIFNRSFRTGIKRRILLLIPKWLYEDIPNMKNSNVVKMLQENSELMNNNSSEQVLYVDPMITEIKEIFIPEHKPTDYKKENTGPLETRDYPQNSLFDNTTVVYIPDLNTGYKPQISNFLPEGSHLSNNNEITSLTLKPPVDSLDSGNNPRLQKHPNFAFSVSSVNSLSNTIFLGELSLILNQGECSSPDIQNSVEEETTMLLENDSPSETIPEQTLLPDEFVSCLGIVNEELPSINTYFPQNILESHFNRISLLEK
In words: IL23R Reporter Assay. The data set is classed as cell-based. The conditions noted are these: HEK293 cells containing IL-23R, IL-12RP1 and STAT-inducible firefly luciferase reporter; 10 ng/mL IL-23 (EC90); 5 h at 37° C.; read-out: IL23R Reporter Assay.

A short description of data set [2]: Exposed Polar Surface Area (EPSA). The data set is classed as physicochemical. Particulars: SFC on Chirex 3014 column; sample 1 mM DMSO stock; read-out: EPSA. In outline: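 SFC retention on a Chirex 3014 (S-valine/(R)-1-(α-naphthyl)ethylamine) column at 35 °C, 4 mL/min, 14 MPa outlet, 5–60% methanol/20 mM ammonium formate gradient in CO2. Retention times converted to EPSA (Å²) via linear calibration with 8 standards; samples from 1 mM DMSO stock, run in duplicate.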

Regarding `CCCCCCCCCCCC(=O)N[C@@H](CCC(=O)NCCOCCOCC(=O)NCCOCCOCC(=O)NCCCC[C@@H](NC(C)=O)C(=O)N[C@@H]1C(=O)N[C@@H](CC(N)=O)C(=O)N[C@@H]([C@@H](C)O)C(=O)N[C@H](Cc2c[nH]c3c(C)cccc23)C(=O)N[C@@H](CCCCNC(C)=O)C(=O)N[C@H](C(=O)N[C@@H](Cc2ccc(OCCN)cc2)C(=O)N[C@@H](Cc2ccc3ccccc3c2)C(=O)NC2(C(=O)N[C@@H](CCCCNC(C)=O)C(=O)N[C@@H](CC(N)=O)C(=O)N[C@@H](Cc3cccnc3)C(=O)N(C)CC(N)=O)CCOCC2)C(C)(C)SSC1(C)C)C(=O)N[C@H](CC(=O)O)C[N+](C)(C)C` [compound 572, MeCO-canEG2PEG2gE(c)C12-Pen(3)-N-T-7MeW-K(Ac)-Pen(3)-AEF-2Nal-THP-K(Ac)-N-3Pya-Sar-CONH2] (Ac-[dK]([AEEA-AEEA-X48])[Pen]NT[dTrp(7-Me)]K(Ac)[Pen][AEF][2Nal][Thp]K(Ac)N[3Pal][Sar]-NH2; disulfide 2-7), in data set [1], the IC50 turned out to be 5.8 nM. Also, in data set [2], the EPSA amounted to 166 A^2.

With `CC(=O)N[C@@H](COCCOCC[N+](C)(C)C)C(=O)N[C@@H]1C(=O)N[C@@H](CC(=O)N(C)C)C(=O)N[C@@H]([C@@H](C)O)C(=O)N[C@@H](Cc2c[nH]c3c(C)cccc23)C(=O)N[C@@H](CCCCN(C)C(C)=O)C(=O)N[C@H](C(=O)N[C@@H](Cc2ccc(OCCOCCOCC[N+](C)(C)C)cc2)C(=O)N[C@@H](Cc2ccc3ccccc3c2)C(=O)NC2(C(=O)N[C@@H](CCCCN(C)C(C)=O)C(=O)N[C@@H](CC(N)=O)C(=O)N[C@@H](Cc3cccnc3)C(=O)N(C)CC(=O)N(C)C)CCOCC2)C(C)(C)SSC1(C)C` (relative stereo) [compound 318, MeCO-APEG2Ser(S*)-Pen(3)-N(N(Me)2)-T-7MeW-K(NMeAc)-Pen(3)-APEG3F-2Nal-THP-K(NMeAc)-N-3Pya-Sar-CON(Me)2], the IC50 in data set [1] was 0.89 nM. The EPSA in data set [2] was 151 A^2.

`Cc1cccc2c(C[C@@H]3NC(=O)[C@H]([C@@H](C)O)NC(=O)[C@H](CC(N)=O)NC(=O)[C@@H](NC(=O)CCOCCOCC[N+](C)(C)C)C(C)(C)SSC(C)(C)[C@@H](C(=O)N[C@@H](Cc4ccc(OCCN)cc4)C(=O)N[C@@H](Cc4ccc5ccccc5c4)C(=O)NC4(C(=O)N[C@@H](CCC(=O)N(C)C)C(=O)N[C@@H](CC(N)=O)C(=O)N[C@@H](Cc5cccnc5)C(=O)N(C)CC(=O)N(C)C)CCOCC4)NC(=O)[C@H](CCC(=O)N(C)C)NC3=O)c[nH]c12` [compound 156, cPEG3aCO-Pen(3)-N-T-7MeW-Q(N(Me)2)-Pen(3)-AEF-2Nal-THP-Q(N(Me)2)-N-3Pya-Sar-CON(Me)2] ({Me3N+(CH2)2O(CH2)2O(CH2)2CO}-[Pen]NT[Trp(7-Me)]E(NMe2)[Pen][AEF][2Nal][Thp]E(NMe2)N[3Pal][Sar]-NMe2; disulfide 1-6): in data set [1], the IC50 was found to be 2 nM. The EPSA in data set [2] was determined as 155 A^2.

Take `CC(=O)N(C)CCCC[C@@H]1NC(=O)[C@H](Cc2c[nH]c3c(C)cccc23)NC(=O)[C@H]([C@@H](C)O)NC(=O)[C@H](CC(=O)N(C)C)NC(=O)[C@@H](NC(=O)CCOCCOCCNC(=N)N)C(C)(C)SSC(C)(C)[C@@H](C(=O)N[C@@H](Cc2ccc(OCCOCCOCC[N+](C)(C)C)cc2)C(=O)N[C@@H](Cc2ccc3ccccc3c2)C(=O)NC2(C(=O)N[C@@H](CCCCN(C)C(C)=O)C(=O)N[C@@H](CC(N)=O)C(=O)N[C@@H](Cc3cccnc3)C(=O)N(C)CC(=O)N(C)C)CCOCC2)NC1=O` [compound 406, cPEG3gCO-Pen(3)-N(N(Me)2)-T-7MeW-K(NMeAc)-Pen(3)-APEG3F-2Nal-THP-K(NMeAc)-N-3Pya-Sar-CON(Me)2] (X11-[Pen]D(NMe2)T[Trp(7-Me)][Lys(Me)](Ac)[Pen]Y(CH2CH2OCH2CH2OCH2CH2NMe3+)[2Nal][Thp][Lys(Me)](Ac)N[3Pal][Sar]-NMe2; disulfide 1-6): the IC50 in data set [1] was found to be 2.1 nM. The EPSA in data set [2] amounted to 150 A^2.
